What all share (assay type): cell-based
Assay [1] concerns Aspergillus niger (ATCC #16404). Kind of assay: MIC synergy assay in TSB, Test Medium Condition 1 (two-fold serial dilution). The following applies: ATCC16404, 168 h. The method, then:
(§1) Synergism was determined by an industrially accepted method described by Kull, F. C.; Eisman, P. C.; Sylwestrowicz, H. D. and Mayer, R. L., in Applied Microbiology 9:538-541 (1961), using the ratio determined by the formula:
(§2) Qa/QA+Qb/QB=Synergy Index (“SI”)
(§3) When the sum of Qa/QA and Qb/QB is greater than one, antagonism is indicated. […] The lower the SI, the greater the synergy shown by that particular mixture. The minimum inhibitory concentration (MIC) of a microbicide is the lowest concentration tested under a specific set of conditions that prevents the growth of added microorganisms.
Synergism of combinations of microbicides was determined using standard MIC assays in trypticase soy broth medium (“TSB” medium). In this method, a range of concentrations was tested by preparing two-fold serial dilutions of the compound tested in 96-well microtiter plates. All liquid media transfers were performed with calibrated single or multichannel digital pipettors. Stock solutions of the microbicides were prepared in appropriate solvents and added to the TSB medium. All subsequent dilutions in plates were made using an automated liquid handling system. Final concentrations of microbicides were obtained by making two-fold serial dilutions in two directions in the microtiter plate. […]

In assay [2] the test system is Candida albicans. Kind of assay: High resolution MIC synergy assay in TSB, Test Medium Condition 2 (ten-fold serial dilution). The method, then:
as §1, §2, §3
(§4) Synergism of combinations of microbicides was determined using standard MIC assays in trypticase soy broth medium (“TSB” medium). In this method, a range of concentrations was tested by preparing two-fold serial dilutions of the compound tested in 96-well microtiter plates. All liquid media transfers were performed with calibrated single or multichannel digital pipettors. Stock solutions of the microbicides were prepared in appropriate solvents and added to the TSB medium. All subsequent dilutions in plates were made using an automated liquid handling system. Final concentrations of microbicides were obtained by making two-fold serial dilutions in two directions in the microtiter plate. […] A cell suspension of either Aspergillus niger (A. niger, ATCC #16404) or Candida albicans (C. albicans, ATCC #10231), adjusted to provide 1×10^5 cells per mL in each well, was added to the microtiter plates.
(§5) In a manner similar to that described above for Test Medium Condition 1, the synergism of combinations of microbicides determined in TSB by conducting high resolution MIC assays in the presence of various concentrations of MI. High resolution MICs were determined by adding varying amounts of microbicide to one column of a microtitre plate and doing subsequent […] dilutions using an automated liquid handling system to obtain a series of endpoints ranging from 2 ppm to 10,000 ppm active ingredient.

For assay [3], the system named is Aspergillus niger. Described as above. The method, then: as §1, §2, §3, §4, §5
Setting [4] is: 72 h, read-out: QA, MIC of Compound A acting alone.

Here are results for two molecules from patent publication US6511673B1, “Microbicidal composition” (Rohm and Haas Company, priority 2000, dated 2003).

Like-named read-outs stand apart in the source and are kept apart here.

Broadly, the MIC is the lowest concentration found to suppress growth. Turning to `Cn1sccc1=O` [MI, 2-methyl-3-isothiazolone], the MIC in assay [1] (read-out: QA, MIC of Compound A acting alone) is 250 µg/mL; in assay [2] (setting [4]), 100 µg/mL; in assay [3] (setting [4]) it was 150 µg/mL.

Take `CCCOC(=O)c1ccc(O)cc1` [PP, propyl para-hydroxybenzoate]: the MIC in assay [1] (A. niger, TSB, two-fold serial dilution, 25° C. one week, read-out: QB, MIC of Compound B acting alone) was 594 µg/mL; in assay [2] (C. albicans, TSB, high resolution MIC, 25° C. 72 hours, read-out: QB, MIC of Compound B acting alone) it was 300 µg/mL; in assay [3] (A. niger, TSB, high resolution MIC, 25° C. 72 hours, read-out: QB, MIC of Compound B acting alone) it was 200 µg/mL.
